Results published in ChEMBL document CHEMBL1697781, “Assessment of the health effects of chemicals in humans: II. Construction of an adverse effects database for QSAR modeling” (Curr Drug Discov Technol, 2004).

Columns and labels:
Details in all cases: human
Hepatotoxicity [1] = assay: FDA HLAED, serum glutamic oxaloacetic transaminase (SGOT) increase
Hepatotoxicity [2] = assay: FDA HLAED, lactate dehydrogenase (LDH) increase
Hepatotoxicity [3] = assay: FDA HLAED, alkaline phosphatase increase
Hepatotoxicity [4] = assay: FDA HLAED, gamma-glutamyl transferase (GGT) increase
Hepatotoxicity [5] = assay: FDA HLAED, serum glutamic pyruvic transaminase (SGPT) increase
Hepatotoxicity [6] = assay: FDA HLAED, liver enzyme composite activity
For GGT Increase - Index Value in this document: reference of the scale not given here.
For LDH Increase - Index Value in this document: reference of the scale not given here.

CC(S)C(=O)NCC(=O)O (stereo unspecified) [TIOPRONIN]
< 4: SGOT Increase - Number of Reports (Hepatotoxicity [1]) | LDH Increase - Number of Reports (Hepatotoxicity [2]) | Alkaline Phosphatase Increase - Number of Reports (Hepatotoxicity [3]) | GGT Increase - Number of Reports (Hepatotoxicity [4]) | SGPT Increase - Number of Reports (Hepatotoxicity [5])
Inactive: SGOT Increase - Activity Score (Hepatotoxicity [1]) | LDH Increase - Activity Score (Hepatotoxicity [2]) | Alkaline Phosphatase Increase - Activity Score (Hepatotoxicity [3]) | GGT Increase - Activity Score (Hepatotoxicity [4]) | SGPT Increase - Activity Score (Hepatotoxicity [5]) | Composite Activity - Score (Hepatotoxicity [6])
0: SGOT Increase - Index Value (Hepatotoxicity [1]) | LDH Increase - Index Value (Hepatotoxicity [2]) | Alkaline Phosphatase Increase - Index Value (Hepatotoxicity [3]) | GGT Increase - Index Value (Hepatotoxicity [4]) | SGPT Increase - Index Value (Hepatotoxicity [5]) | Composite Activity - Active (Hepatotoxicity [6]) | Composite Activity - Marginal (Hepatotoxicity [6])

CCC1(c2ccc(N)cc2)CCC(=O)NC1=O (stereo unspecified) [AMINOGLUTETHIMIDE]
Inactive: SGOT Increase - Activity Score (Hepatotoxicity [1]) | LDH Increase - Activity Score (Hepatotoxicity [2]) | Alkaline Phosphatase Increase - Activity Score (Hepatotoxicity [3]) | GGT Increase - Activity Score (Hepatotoxicity [4]) | SGPT Increase - Activity Score (Hepatotoxicity [5]) | Composite Activity - Score (Hepatotoxicity [6])
< 4: SGOT Increase - Number of Reports (Hepatotoxicity [1]) | LDH Increase - Number of Reports (Hepatotoxicity [2]) | Alkaline Phosphatase Increase - Number of Reports (Hepatotoxicity [3]) | GGT Increase - Number of Reports (Hepatotoxicity [4]) | SGPT Increase - Number of Reports (Hepatotoxicity [5])
0: SGOT Increase - Index Value (Hepatotoxicity [1]) | LDH Increase - Index Value (Hepatotoxicity [2]) | Alkaline Phosphatase Increase - Index Value (Hepatotoxicity [3]) | GGT Increase - Index Value (Hepatotoxicity [4]) | SGPT Increase - Index Value (Hepatotoxicity [5]) | Composite Activity - Active (Hepatotoxicity [6]) | Composite Activity - Marginal (Hepatotoxicity [6])

CCCCCc1cc(O)c2c(c1)OC(C)(C)[C@@H]1CCC(C)=C[C@@H]21 [DRONABINOL]
0: SGOT Increase - Index Value (Hepatotoxicity [1]) | LDH Increase - Index Value (Hepatotoxicity [2]) | Alkaline Phosphatase Increase - Index Value (Hepatotoxicity [3]) | GGT Increase - Index Value (Hepatotoxicity [4]) | SGPT Increase - Index Value (Hepatotoxicity [5]) | Composite Activity - Active (Hepatotoxicity [6]) | Composite Activity - Marginal (Hepatotoxicity [6])
Inactive: SGOT Increase - Activity Score (Hepatotoxicity [1]) | LDH Increase - Activity Score (Hepatotoxicity [2]) | Alkaline Phosphatase Increase - Activity Score (Hepatotoxicity [3]) | GGT Increase - Activity Score (Hepatotoxicity [4]) | SGPT Increase - Activity Score (Hepatotoxicity [5]) | Composite Activity - Score (Hepatotoxicity [6])
< 4: SGOT Increase - Number of Reports (Hepatotoxicity [1]) | LDH Increase - Number of Reports (Hepatotoxicity [2]) | Alkaline Phosphatase Increase - Number of Reports (Hepatotoxicity [3]) | GGT Increase - Number of Reports (Hepatotoxicity [4]) | SGPT Increase - Number of Reports (Hepatotoxicity [5])

O=C(O)CCc1nc(-c2ccccc2)c(-c2ccccc2)o1 [OXAPROZIN]
Inactive: SGOT Increase - Activity Score (Hepatotoxicity [1]) | LDH Increase - Activity Score (Hepatotoxicity [2]) | Alkaline Phosphatase Increase - Activity Score (Hepatotoxicity [3]) | GGT Increase - Activity Score (Hepatotoxicity [4]) | SGPT Increase - Activity Score (Hepatotoxicity [5]) | Composite Activity - Score (Hepatotoxicity [6])
0: Composite Activity - Active (Hepatotoxicity [6]) | Composite Activity - Marginal (Hepatotoxicity [6])
0.9: SGOT Increase - Index Value (Hepatotoxicity [1])
0.8: SGPT Increase - Index Value (Hepatotoxicity [5])
< 4: Alkaline Phosphatase Increase - Number of Reports (Hepatotoxicity [3]) | GGT Increase - Number of Reports (Hepatotoxicity [4])
>= 4: SGOT Increase - Number of Reports (Hepatotoxicity [1]) | LDH Increase - Number of Reports (Hepatotoxicity [2]) | SGPT Increase - Number of Reports (Hepatotoxicity [5])
0.2: Alkaline Phosphatase Increase - Index Value (Hepatotoxicity [3])
0.4: LDH Increase - Index Value (Hepatotoxicity [2]) | GGT Increase - Index Value (Hepatotoxicity [4])

O=C(O)P(=O)(O)O [FOSCARNET]
181.6: Alkaline Phosphatase Increase - Index Value (Hepatotoxicity [3])
36.3: GGT Increase - Index Value (Hepatotoxicity [4])
72.6: SGPT Increase - Index Value (Hepatotoxicity [5])
>= 4: SGOT Increase - Number of Reports (Hepatotoxicity [1]) | LDH Increase - Number of Reports (Hepatotoxicity [2]) | Alkaline Phosphatase Increase - Number of Reports (Hepatotoxicity [3]) | SGPT Increase - Number of Reports (Hepatotoxicity [5])
Active: SGOT Increase - Activity Score (Hepatotoxicity [1]) | LDH Increase - Activity Score (Hepatotoxicity [2]) | Alkaline Phosphatase Increase - Activity Score (Hepatotoxicity [3]) | GGT Increase - Activity Score (Hepatotoxicity [4]) | SGPT Increase - Activity Score (Hepatotoxicity [5]) | Composite Activity - Score (Hepatotoxicity [6])
5: Composite Activity - Active (Hepatotoxicity [6])
< 4: GGT Increase - Number of Reports (Hepatotoxicity [4])
0: Composite Activity - Marginal (Hepatotoxicity [6])
121.1: SGOT Increase - Index Value (Hepatotoxicity [1])
48.4: LDH Increase - Index Value (Hepatotoxicity [2])

CC1(C)S[C@@H]2[C@H](NC(=O)[C@H](N)c3ccc(O)cc3)C(=O)N2[C@H]1C(=O)O [AMOXICILLIN]
< 4: SGOT Increase - Number of Reports (Hepatotoxicity [1]) | LDH Increase - Number of Reports (Hepatotoxicity [2]) | Alkaline Phosphatase Increase - Number of Reports (Hepatotoxicity [3]) | GGT Increase - Number of Reports (Hepatotoxicity [4]) | SGPT Increase - Number of Reports (Hepatotoxicity [5])
0: LDH Increase - Index Value (Hepatotoxicity [2]) | Alkaline Phosphatase Increase - Index Value (Hepatotoxicity [3]) | GGT Increase - Index Value (Hepatotoxicity [4]) | SGPT Increase - Index Value (Hepatotoxicity [5]) | Composite Activity - Active (Hepatotoxicity [6]) | Composite Activity - Marginal (Hepatotoxicity [6])
Inactive: SGOT Increase - Activity Score (Hepatotoxicity [1]) | LDH Increase - Activity Score (Hepatotoxicity [2]) | Alkaline Phosphatase Increase - Activity Score (Hepatotoxicity [3]) | GGT Increase - Activity Score (Hepatotoxicity [4]) | SGPT Increase - Activity Score (Hepatotoxicity [5]) | Composite Activity - Score (Hepatotoxicity [6])
0.1: SGOT Increase - Index Value (Hepatotoxicity [1])

Cc1cn([C@H]2C=C[C@@H](CO)O2)c(=O)[nH]c1=O [STAVUDINE]
Inactive: LDH Increase - Activity Score (Hepatotoxicity [2]) | Alkaline Phosphatase Increase - Activity Score (Hepatotoxicity [3])
3.6: GGT Increase - Index Value (Hepatotoxicity [4])
9.7: SGPT Increase - Index Value (Hepatotoxicity [5])
2.4: Alkaline Phosphatase Increase - Index Value (Hepatotoxicity [3])
2: Composite Activity - Active (Hepatotoxicity [6])
1: Composite Activity - Marginal (Hepatotoxicity [6])
Active: SGOT Increase - Activity Score (Hepatotoxicity [1]) | SGPT Increase - Activity Score (Hepatotoxicity [5]) | Composite Activity - Score (Hepatotoxicity [6])
Marginally Active: GGT Increase - Activity Score (Hepatotoxicity [4])
9.1: SGOT Increase - Index Value (Hepatotoxicity [1])
< 4: LDH Increase - Number of Reports (Hepatotoxicity [2])
1.8: LDH Increase - Index Value (Hepatotoxicity [2])
>= 4: SGOT Increase - Number of Reports (Hepatotoxicity [1]) | Alkaline Phosphatase Increase - Number of Reports (Hepatotoxicity [3]) | GGT Increase - Number of Reports (Hepatotoxicity [4]) | SGPT Increase - Number of Reports (Hepatotoxicity [5])

C[C@H]1COc2c(N3CCN(C)CC3)c(F)cc3c(=O)c(C(=O)O)cn1c23.C[C@H]1COc2c(N3CCN(C)CC3)c(F)cc3c(=O)c(C(=O)O)cn1c23.O [LEVOFLOXACIN]
< 4: SGOT Increase - Number of Reports (Hepatotoxicity [1]) | LDH Increase - Number of Reports (Hepatotoxicity [2]) | Alkaline Phosphatase Increase - Number of Reports (Hepatotoxicity [3]) | GGT Increase - Number of Reports (Hepatotoxicity [4]) | SGPT Increase - Number of Reports (Hepatotoxicity [5])
0: SGOT Increase - Index Value (Hepatotoxicity [1]) | LDH Increase - Index Value (Hepatotoxicity [2]) | Alkaline Phosphatase Increase - Index Value (Hepatotoxicity [3]) | GGT Increase - Index Value (Hepatotoxicity [4]) | SGPT Increase - Index Value (Hepatotoxicity [5]) | Composite Activity - Active (Hepatotoxicity [6]) | Composite Activity - Marginal (Hepatotoxicity [6])
Inactive: SGOT Increase - Activity Score (Hepatotoxicity [1]) | LDH Increase - Activity Score (Hepatotoxicity [2]) | Alkaline Phosphatase Increase - Activity Score (Hepatotoxicity [3]) | GGT Increase - Activity Score (Hepatotoxicity [4]) | SGPT Increase - Activity Score (Hepatotoxicity [5]) | Composite Activity - Score (Hepatotoxicity [6])

Nc1nc2ccc(OC(F)(F)F)cc2s1 [RILUZOLE]
45.2: Alkaline Phosphatase Increase - Index Value (Hepatotoxicity [3])
Inactive: SGOT Increase - Activity Score (Hepatotoxicity [1]) | LDH Increase - Activity Score (Hepatotoxicity [2]) | GGT Increase - Activity Score (Hepatotoxicity [4]) | SGPT Increase - Activity Score (Hepatotoxicity [5]) | Composite Activity - Score (Hepatotoxicity [6])
1: Composite Activity - Active (Hepatotoxicity [6])
0: Composite Activity - Marginal (Hepatotoxicity [6])
Active: Alkaline Phosphatase Increase - Activity Score (Hepatotoxicity [3])
< 4: SGOT Increase - Number of Reports (Hepatotoxicity [1]) | LDH Increase - Number of Reports (Hepatotoxicity [2]) | Alkaline Phosphatase Increase - Number of Reports (Hepatotoxicity [3]) | GGT Increase - Number of Reports (Hepatotoxicity [4]) | SGPT Increase - Number of Reports (Hepatotoxicity [5])
22.6: SGOT Increase - Index Value (Hepatotoxicity [1]) | LDH Increase - Index Value (Hepatotoxicity [2]) | GGT Increase - Index Value (Hepatotoxicity [4]) | SGPT Increase - Index Value (Hepatotoxicity [5])

Clc1ccc(CCC(Cn2ccnc2)Sc2c(Cl)cccc2Cl)cc1 (stereo unspecified) [BUTOCONAZOLE]
0: SGOT Increase - Index Value (Hepatotoxicity [1]) | LDH Increase - Index Value (Hepatotoxicity [2]) | GGT Increase - Index Value (Hepatotoxicity [4]) | Composite Activity - Active (Hepatotoxicity [6]) | Composite Activity - Marginal (Hepatotoxicity [6])
Inactive: SGOT Increase - Activity Score (Hepatotoxicity [1]) | LDH Increase - Activity Score (Hepatotoxicity [2]) | Alkaline Phosphatase Increase - Activity Score (Hepatotoxicity [3]) | GGT Increase - Activity Score (Hepatotoxicity [4]) | SGPT Increase - Activity Score (Hepatotoxicity [5]) | Composite Activity - Score (Hepatotoxicity [6])
0.2: Alkaline Phosphatase Increase - Index Value (Hepatotoxicity [3]) | SGPT Increase - Index Value (Hepatotoxicity [5])
< 4: SGOT Increase - Number of Reports (Hepatotoxicity [1]) | LDH Increase - Number of Reports (Hepatotoxicity [2]) | Alkaline Phosphatase Increase - Number of Reports (Hepatotoxicity [3]) | GGT Increase - Number of Reports (Hepatotoxicity [4]) | SGPT Increase - Number of Reports (Hepatotoxicity [5])

Clc1ccc(C(Cn2ccnc2)OCc2ccsc2Cl)c(Cl)c1 (stereo unspecified) [TIOCONAZOLE]
< 4: SGOT Increase - Number of Reports (Hepatotoxicity [1]) | LDH Increase - Number of Reports (Hepatotoxicity [2]) | Alkaline Phosphatase Increase - Number of Reports (Hepatotoxicity [3]) | GGT Increase - Number of Reports (Hepatotoxicity [4]) | SGPT Increase - Number of Reports (Hepatotoxicity [5])
Inactive: SGOT Increase - Activity Score (Hepatotoxicity [1]) | LDH Increase - Activity Score (Hepatotoxicity [2]) | Alkaline Phosphatase Increase - Activity Score (Hepatotoxicity [3]) | GGT Increase - Activity Score (Hepatotoxicity [4]) | SGPT Increase - Activity Score (Hepatotoxicity [5]) | Composite Activity - Score (Hepatotoxicity [6]; Liver)
0: SGOT Increase - Index Value (Hepatotoxicity [1]) | LDH Increase - Index Value (Hepatotoxicity [2]) | Alkaline Phosphatase Increase - Index Value (Hepatotoxicity [3]) | GGT Increase - Index Value (Hepatotoxicity [4]) | SGPT Increase - Index Value (Hepatotoxicity [5]) | Composite Activity - Active (Hepatotoxicity [6]; Liver) | Composite Activity - Marginal (Hepatotoxicity [6]; Liver)

CN1CCC[C@H]1c1cccnc1 [NICOTINE]
0.6: SGOT Increase - Index Value (Hepatotoxicity [1]) | SGPT Increase - Index Value (Hepatotoxicity [5])
0.3: GGT Increase - Index Value (Hepatotoxicity [4])
0.9: LDH Increase - Index Value (Hepatotoxicity [2])
0: Alkaline Phosphatase Increase - Index Value (Hepatotoxicity [3]) | Composite Activity - Active (Hepatotoxicity [6]; Liver) | Composite Activity - Marginal (Hepatotoxicity [6]; Liver)
Inactive: SGOT Increase - Activity Score (Hepatotoxicity [1]) | LDH Increase - Activity Score (Hepatotoxicity [2]) | Alkaline Phosphatase Increase - Activity Score (Hepatotoxicity [3]) | GGT Increase - Activity Score (Hepatotoxicity [4]) | SGPT Increase - Activity Score (Hepatotoxicity [5]) | Composite Activity - Score (Hepatotoxicity [6]; Liver)
< 4: SGOT Increase - Number of Reports (Hepatotoxicity [1]) | LDH Increase - Number of Reports (Hepatotoxicity [2]) | Alkaline Phosphatase Increase - Number of Reports (Hepatotoxicity [3]) | GGT Increase - Number of Reports (Hepatotoxicity [4]) | SGPT Increase - Number of Reports (Hepatotoxicity [5])
